The values below come from patent US20170128426A1, “NOVEL DOSAGE AND FORMULATION” (Almirall, S.A., priority 2012, published 2017).

The data set is described as follows: Solubility of aclidinium bromide in solvents. The data set is classed as physicochemical. The text has this: Aclidinium bromide is a white powder with a molecular formula of C26H30NO4S2Br and a molecular mass of 564.56. […] This compound is known to be a long-acting anticholinergic useful in the treatment of respiratory diseases.

SMILES strings stand for the structures.

`O=C(O[C@H]1C[N+]2(CCCOc3ccccc3)CCC1CC2)C(O)(c1cccs1)c1cccs1.[Br-]` [Aclidinium bromide, 3(R)-(2-hydroxy-2,2-dithien-2-ylacetoxy)-1-(3-phenoxypropyl)-1-azoniabicyclo[2.2.2]octane bromide]: for the setting “ethanol”, the solubility in ethanol entry was “very slightly soluble”. Further, the solubility in methanol result (methanol) is “sparingly soluble”. Further, the solubility in water result (water) is “very slightly soluble”.
